Entries after “also recorded” stand apart in the source; their conditions may differ.
Columns and labels:
[1] = target: T1, Thermus brockianus catalase (SEQ ID NO:2, SEQ ID NO:5) (Thermus brockianus, UniProt A0ABM7XHT8); test: Peroxidase activity with peroxidase substrates; type: biochemical; details: hydrogen peroxide 1 mM, 20 mM Tris pH 8.0, 70° C.
T1 construct: in solution and immobilized on Eupergit C
T1 sequence (A0ABM7XHT8 6-291): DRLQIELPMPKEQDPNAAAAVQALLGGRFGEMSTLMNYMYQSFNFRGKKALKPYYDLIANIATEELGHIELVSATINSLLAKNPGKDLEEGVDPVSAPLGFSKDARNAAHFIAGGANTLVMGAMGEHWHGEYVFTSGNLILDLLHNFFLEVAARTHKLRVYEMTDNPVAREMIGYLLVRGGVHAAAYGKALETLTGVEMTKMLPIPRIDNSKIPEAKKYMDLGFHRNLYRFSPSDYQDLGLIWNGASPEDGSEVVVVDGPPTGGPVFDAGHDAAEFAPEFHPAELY
Procedure: The reactions were monitored spectrophotometrically at 460 and 420 nm, respectively. The substrates were dissolved in 20 mM Tris buffer, pH 8.0, and the assays were conducted at 70° C.

[2] = test system: T. brockianus catalase; type: biochemical, Thermus brockianus
[3] = test system: Archaeoglobus fulgidus recombinant catalase-peroxidase (putative perA gene); details: in words; cited from earlier work
[4] = test system: N. crassa catalase or catalase-peroxidase; details: cited from earlier work
[5] = test system: R. capsulatus catalase or catalase-peroxidase; details: Table 3; cited from earlier work
[6] = test system: Bacillus sp. catalase or catalase-peroxidase; details: cited from earlier work
[7] = test system: Vitreoscilla sp. catalase or catalase-peroxidase; details: Table 3; cited from earlier work
[8] = test system: E. coli catalase or catalase-peroxidase; details: Table 3; cited from earlier work
[9] = test system: Thermoascus aurantiacus catalase; details: cited from earlier work
[10] = target: Beef liver catalase (Bos taurus, UniProt P00432); details: Non-Immobilized Enzyme; inhibition observed at substrate concentrations above
Sequence of Beef liver catalase (P00432 whole entry): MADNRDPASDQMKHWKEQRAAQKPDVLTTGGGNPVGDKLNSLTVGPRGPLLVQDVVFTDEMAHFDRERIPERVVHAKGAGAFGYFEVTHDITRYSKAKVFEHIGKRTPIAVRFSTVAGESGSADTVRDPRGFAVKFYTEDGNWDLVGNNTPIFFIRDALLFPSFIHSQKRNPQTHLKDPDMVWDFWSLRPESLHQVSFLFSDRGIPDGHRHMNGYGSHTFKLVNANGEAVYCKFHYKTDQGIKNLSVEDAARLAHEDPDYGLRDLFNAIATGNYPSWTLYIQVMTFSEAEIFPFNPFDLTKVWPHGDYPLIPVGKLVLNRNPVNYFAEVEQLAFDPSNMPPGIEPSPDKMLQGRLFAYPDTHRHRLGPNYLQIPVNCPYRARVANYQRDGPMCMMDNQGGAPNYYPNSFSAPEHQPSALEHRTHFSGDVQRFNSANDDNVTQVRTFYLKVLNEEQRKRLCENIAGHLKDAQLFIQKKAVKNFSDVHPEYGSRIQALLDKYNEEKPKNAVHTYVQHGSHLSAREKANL

[11] = test system: M. tuberculosis catalase or catalase-peroxidase; details: cited from earlier work
[12] = test system: A. nidulans catalase or catalase-peroxidase; details: cited from earlier work
[13] = test system: Thermoleophilum album catalase; details: cited from earlier work
[14] = target: T1, Thermus brockianus catalase (SEQ ID NO:2, SEQ ID NO:5); test: Michaelis-Menten kinetics of hydrogen peroxide decomposition (240 nm); type: biochemical; details: for Vmax: 20 mM Tris pH 8, 70° C.
Procedure: The buffer pH was adjusted to 8 at 70° C.
The constants were calculated by fitting the Michaelis-Menten equation to a plot of reaction velocity versus substrate concentration using nonlinear analysis (using GraFit Version 4, Erithacus Software Limited, Horley Surrey, U.K.). […] The enzyme was assayed as in Example I, except that it was preincubated with the inhibitor for 5 min prior to assay.
The turnover number was calculated assuming four active centers per catalase molecule.

[15] = substrate: OO; test: purified protein, by the assay type
[16] = Stability of immobilized catalase; type: physicochemical; details: 70° C.
Procedure: For beef liver catalase, the stability at 70° C. and pH 10 increased from no stability to being stable for 5 minutes. The A. niger catalase was stable for at least 6 hours under these conditions. The stability of immobilized T. brockianus catalase is assayed as done with immobilized beef liver catalase.

[17] = H2O2 concentration showing substrate inhibition

COc1cc(-c2ccc(N)c(OC)c2)ccc1N [o-dianisidine]
peroxidase activity ([1]; substrate 0.5 mM, 460 nm): absence of peroxidase activity

CCn1c(=NN=c2sc3cc(S(=O)(=O)O)ccc3n2CC)sc2cc(S(=O)(=O)O)ccc21 [2,2′-azino-bis(3-ethylbenzothiazoline-6-sulfonic acid)]
peroxidase activity ([1]; substrate 10 mM, 420 nm): absence of peroxidase activity

Nc1nc[nH]n1 [3-amino-1,2,4-triazole]
inhibition of T. brockianus catalase [2]: completely inhibited
inhibition of T. brockianus catalase (in words, no concentration given) [2]: inhibition
inhibition by 3-amino-1,2,4-triazole [3]: inhibited

OO [hydrogen peroxide]
Km ([4]; Table 3): 25 mM
H2O2 Inhibition ([4]; no inhibition observed for H2O2 concentrations up to 200 mM): None^b
Km [5]: 4.2 mM
H2O2 Inhibition [6, 17]: 30 mM
Km ([6]; Table 3): 6.8 mM
Kcat [7]: 26700 s⁻¹
Km [7]: 16 mM
Kcat [8]: 16300 s⁻¹
Km [8]: 3.9 mM
H2O2 Inhibition [9, 17]: 60 mM
Kcat ([9]; Table 3): 107000 s⁻¹
Km ([9]; Table 3): 48 mM
substrate inhibition concentration (footnote b) [10]: ^bApproximated value - inhibition observed at substrate concentrations above 100 mM.
Km ([11]; Table 3): 5.2 mM
Kcat [11]: 10100 s⁻¹
H2O2 Inhibition [12, 17]: 10 mM
Kcat ([12]; Table 3): 7170 s⁻¹
Km ([12]; Table 3): 4.3 mM
H2O2 Inhibition [13, 17]: 20 mM
Km ([13]; Table 3): 15 mM
Vmax ([13]; Table 3): 2.3 mM/min/mg
Vmax ([14]; hydrogen peroxide 3 to 450 mM): 20.3 mM/min·mg protein
Vmax ([14]; Table 3): 20.3 mM/min/mg
turnover number (kcat) ([14]; calculated assuming four active centers per catalase molecule, pH 8, 70° C.): 6000 s⁻¹
H2O2 Inhibition ([14]; no inhibition observed for H2O2 concentrations up to 450 mM, pH 8, 70° C.): no apparent substrate inhibition/inactivation; also recorded: not inhibited; also recorded: None^c

B1: Thermus brockianus catalase (SEQ ID NO:2, SEQ ID NO:5) (Thermus brockianus) (protein)
chain: T1 sequence (A0ABM7XHT8 6-291)
Km ([15]; other: 20 mM Tris pH 8, 70° C., hydrogen peroxide 3 to 450 mM, pH 8.0, 70.0 °C): 35.5 mM
Km ([15]; other: Immobilized Enzyme, packed column, PBS pH 7.2, 20 mL/min, optimum temperature, pH 7.2): 17 mM
Km ([15]; other: Non-Immobilized Enzyme, optimum temperature and pH): 35 mM

B2: Beef Liver: beef liver catalase, commercial comparison enzyme (protein, UniProt P00432 2-527, looked up)
Catalase: ADNRDPASDQMKHWKEQRAAQKPDVLTTGGGNPVGDKLNSLTVGPRGPLLVQDVVFTDEMAHFDRERIPERVVHAKGAGAFGYFEVTHDITRYSKAKVFEHIGKRTPIAVRFSTVAGESGSADTVRDPRGFAVKFYTEDGNWDLVGNNTPIFFIRDALLFPSFIHSQKRNPQTHLKDPDMVWDFWSLRPESLHQVSFLFSDRGIPDGHRHMNGYGSHTFKLVNANGEAVYCKFHYKTDQGIKNLSVEDAARLAHEDPDYGLRDLFNAIATGNYPSWTLYIQVMTFSEAEIFPFNPFDLTKVWPHGDYPLIPVGKLVLNRNPVNYFAEVEQLAFDPSNMPPGIEPSPDKMLQGRLFAYPDTHRHRLGPNYLQIPVNCPYRARVANYQRDGPMCMMDNQGGAPNYYPNSFSAPEHQPSALEHRTHFSGDVQRFNSANDDNVTQVRTFYLKVLNEEQRKRLCENIAGHLKDAQLFIQKKAVKNFSDVHPEYGSRIQALLDKYNEEKPKNAVHTYVQHGSHLSAREKANL
stability, not immobilized ([16]; pH 10, before immobilization): no stability
time stable, immobilized enzyme ([16]; pH 10, immobilized): 5 min

From patent US20050112742A1, “High temperature and alkaline stable catalase” (priority 2003, published 2005)
